Assays:
Assay in all cases: relative viability (nuclei count vs DMSO), 5 days (fraction); higher = more cells survive
Tozasertib + Lapatinib = compound: Cc1cc(Nc2cc(N3CCN(C)CC3)nc(Sc3ccc(NC(=O)C4CC4)cc3)n2)n[nH]1 [Tozasertib] + CS(=O)(=O)CCNCc1ccc(-c2ccc3ncnc(Nc4ccc(OCc5cccc(F)c5)c(Cl)c4)c3c2)o1 [Lapatinib] (partner 2 µM)
Outline: (§1)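 A single step with final 0.05% Triton X-100, 1% formaldehyde and 1 ug/ml Hoechst fixed the cells and stained nuclei 5 days after treatment. Lung cancer cell lines in 1536-well plates had been treated by pin tool the day after seeding with one drug alone or a fixed anchor-drug dose plus five library-drug doses (not always all listed) in √10 steps, and nuclei were counted on 4× images. Relative viability is the ratio of nuclei in treated wells to nuclei in vehicle wells, taken as the median of duplicate plates.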

Tozasertib + Alpelisib = compound: Cc1cc(Nc2cc(N3CCN(C)CC3)nc(Sc3ccc(NC(=O)C4CC4)cc3)n2)n[nH]1 [Tozasertib] + Cc1nc(NC(=O)N2CCC[C@H]2C(N)=O)sc1-c1ccnc(C(C)(C)C(F)(F)F)c1 [Alpelisib] (partner 2 µM)
Outline: as §1

Tozasertib + Dasatinib = compound: Cc1cc(Nc2cc(N3CCN(C)CC3)nc(Sc3ccc(NC(=O)C4CC4)cc3)n2)n[nH]1 [Tozasertib] + Cc1nc(Nc2ncc(C(=O)Nc3c(C)cccc3Cl)s2)cc(N2CCN(CCO)CC2)n1 [Dasatinib] (partner 0.075 µM)
Outline: as §1

Tozasertib + Decitabine = compound: Cc1cc(Nc2cc(N3CCN(C)CC3)nc(Sc3ccc(NC(=O)C4CC4)cc3)n2)n[nH]1 [Tozasertib] + Nc1ncn([C@H]2C[C@H](O)[C@@H](CO)O2)c(=O)n1 [Decitabine] (partner 2 µM)
Outline: as §1

Tozasertib + Vorinostat = compound: Cc1cc(Nc2cc(N3CCN(C)CC3)nc(Sc3ccc(NC(=O)C4CC4)cc3)n2)n[nH]1 [Tozasertib] + O=C(CCCCCCC(=O)Nc1ccccc1)NO [Vorinostat] (partner 1 µM)
Outline: as §1

| Cell Line | relative viability (Tozasertib + Lapatinib; first compound 0.004 µM) | relative viability (Tozasertib + Lapatinib; first compound 0.01265 µM) | relative viability (Tozasertib + Lapatinib; first compound 0.04 µM) | relative viability (Tozasertib + Lapatinib; first compound 0.1265 µM) | relative viability (Tozasertib + Alpelisib; first compound 0.004 µM) | relative viability (Tozasertib + Alpelisib; first compound 0.01265 µM) | relative viability (Tozasertib + Alpelisib; first compound 0.04 µM) | relative viability (Tozasertib + Alpelisib; first compound 0.1265 µM) | relative viability (Tozasertib + Dasatinib; first compound 0.004 µM) | relative viability (Tozasertib + Dasatinib; first compound 0.01265 µM) | relative viability (Tozasertib + Dasatinib; first compound 0.04 µM) | relative viability (Tozasertib + Dasatinib; first compound 0.1265 µM) | relative viability (Tozasertib + Decitabine; first compound 0.004 µM) | relative viability (Tozasertib + Decitabine; first compound 0.01265 µM) | relative viability (Tozasertib + Decitabine; first compound 0.04 µM) | relative viability (Tozasertib + Decitabine; first compound 0.1265 µM) | relative viability (Tozasertib + Vorinostat; first compound 0.004 µM) | relative viability (Tozasertib + Vorinostat; first compound 0.01265 µM) | relative viability (Tozasertib + Vorinostat; first compound 0.04 µM) | relative viability (Tozasertib + Vorinostat; first compound 0.1265 µM) |
| --- | --- | --- | --- | --- | --- | --- | --- | --- | --- | --- | --- | --- | --- | --- | --- | --- | --- | --- | --- | --- |
| NCI-H2087 | 1.14 | 1.06 | 1.05 | 0.805 | 1.08 | 1.01 | 1.21 | 0.913 | 0.82 | 0.858 | 1.12 | 0.63 | 0.244 | 0.257 | 0.306 | 0.143 | 0.477 | 0.537 | 0.544 | 0.382 |
| NCI-H2126 | 0.794 | 0.805 |  | 0.567 | 0.819 | 0.748 | 0.806 | 0.769 | 0.587 | 0.674 | 0.674 | 0.485 | 0.551 | 0.58 | 0.612 | 0.606 | 0.797 | 0.808 | 0.915 | 0.781 |
| NCI-H2170 | 0.271 | 0.288 | 0.278 | 0.251 | 0.721 | 0.769 | 0.838 | 0.679 | 0.565 | 0.501 | 0.546 | 0.445 | 0.487 | 0.446 | 0.474 | 0.425 | 0.764 | 0.887 | 0.69 | 0.427 |
| NCI-H2347 | 1.06 | 1.01 | 0.953 | 0.763 | 0.996 | 1.09 | 0.871 | 0.963 | 0.344 |  | 0.262 | 0.281 | 0.567 | 0.365 | 0.627 | 0.74 | 0.586 | 0.643 | 0.57 | 0.664 |
| NCI-H2405 | 1.05 | 0.962 | 0.793 | 0.705 | 0.723 | 0.812 | 0.778 | 0.807 | 0.251 | 0.124 | 0.19 | 0.197 | 0.721 | 0.699 | 0.715 | 0.683 | 1.16 | 0.809 | 1.02 | 0.594 |
| NCI-H3122 | 0.974 | 0.992 | 1.02 | 1.04 | 0.808 | 0.809 | 0.847 | 0.749 | 0.71 | 0.802 | 0.913 | 0.886 | 0.444 | 0.356 | 0.48 | 0.494 | 0.852 | 1.07 | 0.869 | 0.485 |
| PC-3 [JPC-3] | 0.45 | 0.46 | 0.529 | 0.33 | 0.835 | 1.03 | 1.03 | 0.959 | 0.863 | 0.966 | 1.06 | 1.03 | 0.808 | 0.889 | 0.828 | 0.793 | 0.616 | 0.51 | 0.71 | 0.566 |
| PC-14 | 0.293 | 0.287 | 0.354 | 0.361 | 0.982 | 0.95 | 0.954 | 0.956 |  | 0.292 | 0.254 | 0.132 |  | 0.21 | 0.184 | 0.128 |  | 0.741 | 0.879 | 0.121 |

From the supplement of paper PMC10307832
